Data taken from patent publication US11884681B2, “3H,4H,5H,6H,7H-pyrimido[4,5-b][1,4]oxazine-4,6-dione derivatives as TRPA1 inhibitors” (Boehringer Ingelheim International GmbH, priority 2021, dated 2024).

What was measured:
[1] = Assay C: Hepatocyte clearance; type: in vitro ADME, human; conditions: compounds of the invention; hepatocyte suspension, 5% species serum, 1 μM compound, up to 6 h
Description: Assay C: Hepatocyte Clearance
The metabolic degradation of the test compound is assayed in a hepatocyte suspension. Hepatocytes (cryopreserved) are incubated in Dulbecco's modified eagle medium (supplemented with 3.5 μg glucagon/500 mL, 2.5 mg insulin/500 mL and 3.75 mg/500 mL hydrocortison) containing 5% species serum.
The cells are incubated for six hours (incubator, orbital shaker) and samples (25 μl) are taken at 0, 0.5, 1, 2, 4 and 6 hours. Samples are transferred into acetonitrile and pelleted by centrifugation (5 min). The supernatant is transferred to a new 96-deepwell plate, evaporated under nitrogen and resuspended.
Decline of parent compound is analyzed by HPLC-MS/MS
CLint is calculated as follows CL_[…]=Dose/AUC=(CO/CD)/(AUD+clast/k)×1000/60. C0: initial concentration in the incubation [μM], CD: cell density of vital cells [10e6cells/mL], AUD: area under the data [μM×h], clast: concentration of last data point [μM], k: slope of the regression line for parent decline [h−1].
The calculated in vitro hepatic intrinsic clearance can be scaled up to the intrinsic in vivo hepatic Clearance and used to predict hepatic in vivo blood clearance (CL) by the use of a liver model (well stirred model). CL_[…]_INVIVO [ml/min/kg]=(CL_[…] [μL/min/10e6cells]×hepatocellularity [10e6 cells/g liver]×liver factor [g/kg bodyweight])/1000 CL [ml/min/kg]=CL_[…]_INVIVO [ml/min/kg]×hepatic blood flow [ml/min/kg]/(CL_[…]_INVIVO [ml/min/kg]+hepatic blood flow [ml/min/kg]) Qh [%]=CL [ml/min/kg]/hepatic blood flow [ml/min/kg])
(§1) Hepatocellularity, human: 120×10e6 cells/g liver
(§2) Liver factor, human 25.7 g/kg bodyweight
(§3) Blood flow, human 21 ml/(min×kg)

[2] = Assay B: Microsomal clearance; type: in vitro ADME, human; conditions: compounds of the invention; pooled liver microsomes 1 mg/ml, 1 μM compound, 37° C., NADPH
Description: Assay B: Microsomal Clearance:
The metabolic degradation of the test compound is assayed at 37° C. with pooled liver microsomes. The final incubation volume of 100 μl per time point contains TRIS buffer pH 7.6 at RT (0.1 M), magnesium chloride (5 mM), microsomal protein (1 mg/ml) and the test compound at a final concentration of 1 μM.
Following a short preincubation period at 37° C., the reactions are initiated by addition of beta-nicotinamide adenine dinucleotide phosphate, reduced form (NADPH, 1 mM) and terminated by transferring an aliquot into solvent after different time points (0, 5, 15, 30, 60 min). Additionally, the NADPH-independent degradation is monitored in incubations without NADPH, terminated at the last time point. The [%] remaining test compound after NADPH independent incubation is reflected by the parameter c(control) (metabolic stability). The quenched incubations are pelleted by centrifugation (10000 g, 5 min).
An aliquot of the supernatant is assayed by LC-MS/MS for the amount of parent compound. The half-life (t1/2 INVITRO) is determined by the slope of the semilogarithmic plot of the concentration-time profile.
The intrinsic clearance (CL_[…]) is calculated by considering the amount of protein in the incubation: CL_[…] [μl/min/mg protein]=(Ln 2/(half-life [min]*protein content [mg/ml]))*1000 CL_[…]_INVIVO [ml/min/kg]=(CL_[…] [μL/min/mg protein]×MPPGL [mg protein/g liver]×liver factor [g/kg bodyweight])/1000 Qh [%]=CL [ml/min/kg]/hepatic blood flow [ml/min/kg])
as §1, §2, §3

[3] = biological target: T1, human TRPA1 ion channel (Homo sapiens, UniProt O75762); experiment: Assay A: TRPA1 assay (FLIPR calcium, AITC agonism); type: cell-based; conditions: compounds of the invention; HEK293 over-expressing human TRPA1, AITC final 10 μM, FLIPRtetra; read-out: hTRPA1 IC50
T1 construct: host or cells: HEK293
T1 sequence (O75762 whole entry): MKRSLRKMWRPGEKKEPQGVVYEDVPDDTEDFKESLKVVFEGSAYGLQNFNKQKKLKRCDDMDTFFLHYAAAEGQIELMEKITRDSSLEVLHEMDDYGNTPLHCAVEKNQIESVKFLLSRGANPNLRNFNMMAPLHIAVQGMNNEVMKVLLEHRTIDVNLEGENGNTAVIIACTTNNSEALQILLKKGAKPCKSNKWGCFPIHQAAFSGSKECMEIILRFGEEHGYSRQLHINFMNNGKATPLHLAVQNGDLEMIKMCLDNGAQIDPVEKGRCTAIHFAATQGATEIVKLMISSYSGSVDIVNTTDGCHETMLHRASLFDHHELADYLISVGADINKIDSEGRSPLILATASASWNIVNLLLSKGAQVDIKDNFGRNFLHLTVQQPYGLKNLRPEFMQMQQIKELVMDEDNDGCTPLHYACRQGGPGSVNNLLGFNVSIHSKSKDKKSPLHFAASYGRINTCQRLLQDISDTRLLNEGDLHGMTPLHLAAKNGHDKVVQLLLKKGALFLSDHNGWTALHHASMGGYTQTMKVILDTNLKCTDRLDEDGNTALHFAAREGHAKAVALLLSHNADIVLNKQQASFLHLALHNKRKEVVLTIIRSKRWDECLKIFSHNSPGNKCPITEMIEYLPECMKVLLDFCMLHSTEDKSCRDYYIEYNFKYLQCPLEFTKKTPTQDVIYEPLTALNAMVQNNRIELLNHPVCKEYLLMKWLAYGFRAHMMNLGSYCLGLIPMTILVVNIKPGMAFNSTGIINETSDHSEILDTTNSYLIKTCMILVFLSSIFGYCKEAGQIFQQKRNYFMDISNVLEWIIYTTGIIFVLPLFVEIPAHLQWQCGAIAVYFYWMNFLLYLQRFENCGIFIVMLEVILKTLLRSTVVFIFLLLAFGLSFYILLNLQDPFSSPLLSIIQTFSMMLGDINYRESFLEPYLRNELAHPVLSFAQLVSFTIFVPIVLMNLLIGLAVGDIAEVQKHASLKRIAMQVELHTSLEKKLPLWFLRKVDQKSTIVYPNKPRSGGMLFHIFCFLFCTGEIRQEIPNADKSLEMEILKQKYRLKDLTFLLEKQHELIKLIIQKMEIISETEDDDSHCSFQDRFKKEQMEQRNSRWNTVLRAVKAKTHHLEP
Description: A human HEK293 cell line over-expressing the human TRPA1 ion channel (Perkin Elmer, Product No. AX-004-PCL) is used as a test system for compound efficacy and potency. Compound activity is determined by measuring the effect of compounds on intracellular calcium concentration induced by AITC (Allylisothiocyanat) agonism in a FLIPRtetra system (Molecular Devices).
The cells are obtained as frozen cells in cryo-vials and stored until use at −150° C. Cells are grown in culture medium (MEM/EBSS medium with 10% FCS and 0.4 mg/ML Geneticin). […] For sub-culturing cells are detached from flasks by Versene. At the day before the assay, cells are detached, washed twice with medium (MEM/EBSS medium with 10% FCS) and 20000 cells in 20 μl/well are seeded to Poly D-Lysin biocoated 384-well plates (black, clear bottom, Cat. 356697) from Corning. Plates are incubated for 24 hours at 37° C./5% CO2 before use in the assay.
The test compounds are dissolved in 100% DMSO at a concentration of 10 mM and in a first step diluted in DMSO to a concentration of 5 mM, followed by serial dilution steps in 100% DMSO. Dilution factor and number of dilution steps may vary according to needs. Typically 8 different concentrations by 1:5 dilutions are prepared, further intermediate dilutions (1:20) of the substances are carried out with HBSS/HEPES buffer (1×HEPES, Cat. 14065 from Gibco, 20 mM HEPES, Cat. 83264 from SIGMA, 0.1% BSA Cat. 11926 from Invitrogen, pH 7.4
At the assay day cells are washed 3× with assay puffer, 20 μL buffer remaining in the wells after washing. 10 μL Ca6 kit (Cat. R8191 MolecularDevices) loading buffer in HBSS/HEPES is added to the cells and the plates are incubated with lid for 120 minutes at 37°/5% CO2. […] Finally 10 μL of the agonist AITC 50 μM dissolved in HBSS/HEPES buffer/0.05% DMSO (final concentration 10 μM) is added to the wells followed by an additional read on the FLIPRtetra device for 10 minutes. The area under the signal curve (AUC) after AITC addition is used for IC50/% inhibition calculations
Data Evaluation and Calculation:
Each assay microtiter plate contains wells with vehicle (1% DMSO) controls instead of compound as controls for AITC induced luminescence (100% CTL; high controls) and wells with vehicle controls without AITC as controls for non-specific changes in luminescence (0% CTL; low controls).
The analysis of the data is performed by the calculation of the area under signal curve of the individual wells. Based on this values the % value for the measurement of each substance concentration is calculated (AUC(sample)−AUC(low))*100/(AUC(high)−AUC(low)) using MegaLab software (in house development). The IC50 values are calculated from the % control values using MegaLab software. Calculation: [y=(a−d)/(1+(x/c)^b)+d], a=low value, d=high value; x=conc M; c=IC50 M; b=hill; y=% ctrl

| Structure (SMILES) | human Hepatocytes [1] [% Qh] | human LM [2] [% Qh] | IC50 [3] [nM] |
| --- | --- | --- | --- |
| CN1C(=O)COc2ncn(Cc3nc(C[C@H](O)c4ccc(Cl)cc4)no3)c(=O)c21 [Example 1, 3-({3-[(2S)-2-(4-chlorophenyl)-2-hydroxyethyl]-1,2,4-oxadiazol-5-yl}methyl)-5-methyl-3H,4H,5H,6H,7H-pyrimido[4,5-b][1,4]oxazine-4,6-dione] | 9 | <23 | 57 |
| Cc1ccc([C@@H](O)Cc2noc(Cn3cnc4c(c3=O)N(C)C(=O)CO4)n2)cc1 [Example 7] | 9 | <23 | 120 |
| CN1C(=O)COc2ncn(Cc3nc(C[C@H](O)c4cc5cc(Cl)ccc5o4)no3)c(=O)c21 [Example 6] | 37 | 56 | 51 |

Molecules with a lower IC50 [3], results first:

| human Hepatocytes [1] [% Qh] | human LM [2] [% Qh] | IC50 [3] [nM] | Structure (SMILES) |
| --- | --- | --- | --- |
| 22 | 29 | 39 | CN1C(=O)COc2ncn(Cc3nc(C[C@H](O)c4ccc(I)cc4)no3)c(=O)c21 [Example 5] |
| 22 | <23 | 39 | CN1C(=O)COc2ncn(Cc3nc(C[C@H](O)c4cc5cc(F)ccc5o4)no3)c(=O)c21 [Example 4] |
| 31 | <23 | 27 | CN1C(=O)COc2ncn(Cc3nc(C[C@H](O)c4cc5ccccc5s4)no3)c(=O)c21 [Example 3] |
| 34 | <23 | 12 | CN1C(=O)COc2ncn(Cc3nc(C[C@H](O)c4cc5ccc(F)cc5s4)no3)c(=O)c21 [Example 2] |
